# Laboratory results as given in patent US4156729A, “1,2-Benzisothiazolin-3-ones” (Bayer Aktiengesellschaft, priority 1976, dated 1979).
# Key:
# Rabbit PRP [1] = experiment: In vitro ADP-induced thrombocyte aggregation inhibition, rabbit PRP; format: cell-based; settings: Oryctolagus cuniculus, 10 min preincubation, 37° C.
# Protocol: (§1) In vitro: Blood from healthy human test subjects of both sexes, and blood of rabbits and rats is used. One part of 3.8% strength aqueous sodium citrate solution, as an anticoagulant, is mixed with nine parts of blood. Centrifugation of this blood gives a platelet-rich citrate plasma (PRP); see generally Jurgens/Beller, Klinische Methoden der Blutgerinnungsanalyse, Thieme Verlag, Stuttgart (1959).
# (§2) A mixture of 0.8 ml of PRP and 0.1 ml of the active compound solution is preincubated for 10 minutes at 37° C. Thrombocyte aggregation is then determined by the turbidimetric method of Born [J. Physiol. (London) 162, 67 (1962)] in an aggregometer at 37° C. [see generally Therapeutische Berichte, 47, 80-86 (1975)]. An aggregation-initiating agent (0.1 ml) such as collagen or ADP is thus added to the preincubated sample. The change in the optical density in the sample of PRP is recorded over a period of 6 minutes and the percentage inhibition is then calculated from the integrated area or the deflection.
# (§3) Table I presents ranges of concentration at which the thrombocyte aggregation is inhibited by a value of 50% utilizing 2-(2-diethylaminoethyl)-4,6-dimethyl-1,2-benzisothiazolin-3-one (as the 1,5-naphthalenedisulfonate hemisalt) [compound A].
# Human PRP = experiment: In vitro ADP-induced thrombocyte aggregation inhibition, human PRP; format: cell-based; settings: 10 min preincubation, 37° C.
# Protocol: as §1, §2, §3
# Rat PRP = experiment: In vitro ADP-induced thrombocyte aggregation inhibition, rat PRP; format: cell-based; settings: 10 min preincubation, 37° C.
# Protocol: as §1, §2, §3
# [2] = tested on: thrombocyte aggregation in PRP of rabbits; experiment: Inhibition of collagen-induced thrombocyte aggregation in PRP of rabbits upon in vivo administration; settings: rabbit, 30 mg/kg oral, 2 hours after administration, *=statistically significant (p 0.05)
# Protocol: as §2
# (§4) In carrying out these experiments, the compound is administered orally in a tragacanth suspension. The animals are then bled, 90 minutes (rats) or 2 hours (rabbits), after administration, and the PRP is isolated by centrifuging. After isolating the PRP, the measurement of the aggregation inhibition is conducted in vitro analogously to the process described for Table I, without however any preincubation of the samples. Three parts of the rat PRP are furthermore diluted with 1 part of physiological sodium chloride solution.
# [3] = tested on: thrombocyte aggregation in PRP of rabbits; experiment: Inhibition of ADP-induced thrombocyte aggregation in PRP of rabbits upon in vivo administration; settings: rabbit, 30 mg/kg oral, 2 hours after administration, *=statistically significant (p 0.05)
# Protocol: as §2, §4
# [4] = tested on: thrombocyte aggregation in PRP of rats; experiment: Inhibition of ADP-induced thrombocyte aggregation in PRP of rats upon in vivo administration; settings: rat, 30 mg/kg oral, 90 minutes after administration, *=statistically significant (p 0.05)
# Protocol: as §2, §4
# [5] = tested on: thrombocyte aggregation in PRP of rats; experiment: Inhibition of collagen-induced thrombocyte aggregation in PRP of rats upon in vivo administration; settings: rat, 10 mg/kg oral, 90 minutes after administration, *=statistically significant (p 0.05)
# Protocol: as §2, §4
# Rabbit PRP [6] = experiment: In vitro collagen-induced thrombocyte aggregation inhibition, rabbit PRP; format: cell-based; settings: Oryctolagus cuniculus, 10 min preincubation, 37° C.
# Protocol: as §1, §2, §3
# [7] = tested on: thrombus formation in left carotid artery of a rat; experiment: Inhibition of thrombus formation in vivo (rat carotid artery); settings: 30 mg/kg oral, immediately before the procedure, thrombus isolated 4 hours later
# Protocol: In this experiment, the left carotid artery of a rat is exposed and cooled to minus 15° C. to stimulate thrombus formation. At the same time, the blood flow is reduced by means of a silver clip. The thrombus is isolated from the artery 4 hours later and is weighted. The table indicates the percentage reduction in weight of the thrombus when the test compound is administered immediately before the procedure.
# ADP-induced aggregation [8] = experiment: Activity in vivo at the tested doses (summary statement)
# Protocol: as §4
# ADP-induced aggregation [9] = experiment: ADP-induced aggregation in vitro (summary statement); format: cell-based; settings: relative to the compounds according to the invention
# Protocol: as §1, §2
Compound,IC50 (Rabbit PRP [1]),IC50 (Human PRP),IC50 (Rat PRP),Percent inhibition (1) (integrated area) [2],Percent inhibition (2) (amplitude) [2],Percent inhibition (1) (integrated area) [3],Percent inhibition (2) (amplitude) [3],Percent inhibition (1) (integrated area) [4],Percent inhibition (2) (amplitude) [4],Percent inhibition (1) (integrated area) [5],Percent inhibition (2) (amplitude) [5],IC50 (Rabbit PRP [6]),Percentage inhibition (percentage reduction in weight of the thrombus) [7],activity in vivo (ADP-induced aggregation [8]),activity in vitro (ADP-induced aggregation [9])
CC(=O)Oc1ccccc1C(=O)O [Acetylsalicylic acid],> 10 µg/mL,> 100 µg/mL,> 10 µg/mL,63%,58%,15%,6%,15%,27%,31%,35%,,,,
"CCN(CC)CCn1sc2cc(C)cc(C)c2c1=O [Compound A, 2-(2-diethylaminoethyl)-4,6-dimethyl-1,2-benzisothiazolin-3-one]",1 µg/mL,,1 µg/mL,74%,72%,33%,54%,45%,77%,72%,71%,1 µg/mL,48 Percentage,,
OCCN(CCO)c1nc(N2CCCCC2)c2nc(N(CCO)CCO)nc(N3CCCCC3)c2n1 [Dipyridamol],,> 100 µg/mL,> 10 µg/mL,,,,,,-23%,5%,7%,,17 Percentage,inactive at the tested doses in vivo,substantially less active in vitro
O=C1C(CC[S+]([O-])c2ccccc2)C(=O)N(c2ccccc2)N1c1ccccc1 (centres unmarked) [Sulfinepyrazone],,> 100 µg/mL,> 10 µg/mL,,,,,,-5%,-3%,0%,,,inactive at the tested doses in vivo,substantially less active in vitro
